Reference: publication PMC10799085, “A miniaturized mode-of-action profiling platform enables high throughput characterization of the molecular and cellular dynamics of EZH2 inhibition” (Scientific Reports, 2024)
Like-named read-outs stand apart in the source and are kept apart here.

Assays:
EZH2 = system: EZH2; set-up: method as in Konze et al. [41]; conditions: 40-fold higher enzyme concentration; ref Konze et al. [41]; cited from earlier work
PRC2/EZH2Y641N = biological target: T1, PRC2/EZH2Y641N (Homo sapiens, UniProt Q15910, Y641N); test: Kinetic probe competition assay (kPCA), TR-FRET; type: binding
T1 construct: Synthetic cDNA encoding N-terminal 6His-tagged full length EZH2^Y641N; 6His (N); made in house; host or cells: Sf9 insect cells (baculovirus co-infection)
Text: Biotinylated PRC2 complexes and the fluorescent probe used in TR-FRET assays were generated as described in the supplementary methods section.

PRC2/EZH2+/+ [1] = biological target: T2, PRC2/EZH2+/+ (Homo sapiens, UniProt Q15910); test: Equilibrium binding thermodynamics (van't Hoff analysis of ePCA/kPCA at 5-37 °C); conditions: ePCA at 5-37 °C, wild type EZH2
T2 construct: purchased Active Motif
Protocol: (§1) For thermodynamic analysis of the binding to EZH2+/+ the probe characterization, equilibrium and kinetic probe competition assays described above (previously conducted at 25 °C) were performed at 5, 15, 30 and 37 °C. […] For measurements at 25, 30 and 37 °C, the temperature control functionality of the instrument was used.
Equilibrium and kinetic binding constants obtained at various temperatures were used to determine the thermodynamic parameters by van’t Hoff and Eyring analysis, as described elsewhere for SPR and radioligand binding experiments[46],[69]. For the van’t Hoff thermodynamic analysis, changes in entropy ΔS° and enthalpy ΔH° were estimated by linear regression using the van’t Hoff equation. lnKA=ΔS^∘/R-ΔH^∘/RT,
Changes in Gibb’s free energy ΔG° were calculated according to. ΔG^∘T=ΔH^∘-T×ΔS^∘
Additionally, the possible temperature dependence of the thermodynamic parameters was considered using the integrated form of the van’t Hoff equation[47] for nonlinear regression to yield the changes in entropy, enthalpy, and heat capacity ΔCp: ln KA=-ΔH^∘T^∘/RT+ΔS^∘T^∘/R+ΔCp/R[T-T^∘/T-lnT/T^∘],

[2] = system: H3K27me3 mark in MDA-MB-231 cells; test: High content analysis (HCA) of cellular H3K27me3 mark, washout format; type: cell-based; conditions: for IC50: Homo sapiens, MDA-MB-231, read-out: Mean IC50 (M), H3K27 methylation HCA
Protocol: In the low- and high-signal control wells, test compounds were replaced by 10 µM of EZH2 inhibitor (equal to unlabeled probe from ePCA and kPCA) or DMSO, respectively. […] After fixation, the cells were washed with PBS and incubated with 1% BSA blocking solution at RT for 1 h. Blocking solution was discarded, primary monoclonal antibody rabbit Tri-methyl-histone H3K27 (C36B11, Cell signaling) diluted 1:200 in blocking solution was added and incubated overnight at 4 °C. […] Afterwards, cells were washed three times with PBS and incubated at 4 °C until measuring. Fluorescence signals were captured by an Opera Phenix™ High Content Screening (HCA) system (Perkin Elmer) by 10× magnification. […] Microscopy images were initially visualized and preprocessed with MetaXpress High Content Image Acquisition & Analysis Software (Molecular Devices) as previously described. Raw data import, normalization, quality control and fitting curves for IC50 determination of tested compounds were done with Genedata Screener® for high-content screening. Wells with no recognizable signals were masked and the average intensity of the trimethylation signal was normalized to the DMSO control (0%).

PRC2/EZH2+/+ [3] = biological target: T2, PRC2/EZH2+/+; test: Transition state thermodynamics (Eyring analysis of kPCA at 5-37 °C); type: binding; conditions: Kinetic (Eyre); for Enthalpic Efficiency (kon): association; for Enthalpic Efficiency (koff): dissociation
Protocol: as §1
For Eyring transition state analysis, changes in the activation entropy ΔS^# and enthalpy ΔH^# were estimated by Eyring analysis using linear regression of. lnkh/kBT=ΔS^#/R-ΔH^#/(RT).
To consider the possible temperature dependence, the activation entropy and enthalpy were obtained along with the activation heat capacity ΔC^#p by nonlinear regression using. lnkh/kBT=-ΔH^#T^∘/RT+ΔS^#T^∘/R+ΔCp#/R[T-T^∘/T-lnT/T^∘],

PRC2/EZH1 = biological target: T3, PRC2/EZH1 (Homo sapiens, UniProt Q92800); test: Scintillation proximity assay (SPA) of H3K27 methylation; type: biochemical
T3 construct: N-terminal 6His-tagged full length EZH2^Y641N, EZH2^Y111L, EZH2^Y111D, EZH2^Y641N, Y661DEZH2, EZH1; 6His (N); made in house; host or cells: Sf9 insect cells (baculovirus co-infection)

[4] = EZH2Y641N (+ H3K27me3), kinetic, RT sheet
[5] = EZH2Y641N (- H3K27me3), sheet ePCA&kPCA RT
[6] = EZH2Y641N (+ H3K27me3), RT sheet

CCCc1cc(C)[nH]c(=O)c1CNC(=O)c1cc(-c2ccc(N3CCN(C(C)C)CC3)nc2)cc2c1cnn2C(C)C [Compound 9, UNC1999]
IC50 (EZH2): 10 nM | Calculated RT (PRC2/EZH2Y641N; EZH2Y641N (+ H3K27me3)): 0.07 h | Kd (PRC2/EZH2Y641N; [4]): 4.56 nM | Calculated RT (PRC2/EZH2Y641N; EZH2Y641N (- H3K27me3)): 0.0242 h | Kd (PRC2/EZH2Y641N; [5]): 35 nM

Cc1cc(C)c(CN2CCc3c(Cl)cc(-c4c(C)noc4C)c(Cl)c3C2=O)c(=O)[nH]1 [Compound 14]
binding driving force, polynomial van't Hoff analysis (PRC2/EZH2+/+ [1]): entropy-driven | AUC (a.u.) ([2]; HCA H3K27 methylation washout pIC50 AUC over all incubation/washout times): 92.2 a.u. | IC50 ([2]; incubation time 0.5 h, washout time 71.5 h): 7e-06 M | IC50 ([2]; incubation time 1 h, washout time 71 h): 4.1e-06 M | IC50 ([2]; incubation time 2 h, washout time 70 h): 2.9e-06 M | IC50 ([2]; incubation time 4 h, washout time 68 h): 1.8e-06 M | IC50 ([2]; incubation time 24 h, washout time 48 h): 1.6e-06 M | IC50 ([2]; incubation time 48 h, washout time 24 h): 5.5e-07 M | IC50 ([2]; incubation time 72 h, washout time 0 h): 4.6e-08 M | Kinetic Efficiency (PRC2/EZH2Y641N; EZH2Y641N (+ H3K27me3)): 2.02E-02 | koff (PRC2/EZH2Y641N; [6]): 0.000921 s⁻¹ | kon (PRC2/EZH2Y641N; [6]): 1.28e+06 M⁻¹ s⁻¹ | Calculated RT (PRC2/EZH2Y641N; EZH2Y641N (+ H3K27me3)): 0.16 h | Kd (PRC2/EZH2Y641N; [4]): 0.68 nM | Kinetic Efficiency (PRC2/EZH2Y641N; EZH2Y641N (- H3K27me3)): 2.35E-02 | Calculated RT (PRC2/EZH2Y641N; EZH2Y641N (- H3K27me3)): 0.19 h | Kd (PRC2/EZH2Y641N; [5]): 2.83 nM | koff (PRC2/EZH2Y641N; [5]): 0.00136 s⁻¹ | kon (PRC2/EZH2Y641N; [5]): 496000 M⁻¹ s⁻¹ | Enthalpic Efficiency (kon) (PRC2/EZH2+/+ [3]; EZH2+/+ (Linear Fit)): 1.3 kcal/mol | Enthalpic Efficiency (koff) (PRC2/EZH2+/+ [3]; EZH2+/+ (Linear Fit)): 1.9 kcal/mol | -T * ΔS°kon-koff (PRC2/EZH2+/+ [3]; EZH2+/+ (Linear Fit)): -7.51 kcal/mol | ΔG°kon-koff (PRC2/EZH2+/+ [3]; EZH2+/+ (Linear Fit)): -12 kcal/mol | ΔH°kon-koff (PRC2/EZH2+/+ [3]; EZH2+/+ (Linear Fit)): -4.49 kcal/mol | Enthalpic Efficiency (kon) (PRC2/EZH2+/+ [3]; EZH2+/+ (Non-linear Fit)): 0.47 kcal/mol | Enthalpic Efficiency (koff) (PRC2/EZH2+/+ [3]; EZH2+/+ (Non-linear Fit)): 1.3 kcal/mol | -T * ΔS°kon-koff (PRC2/EZH2+/+ [3]; EZH2+/+ (Non-linear Fit)): -5.28 kcal/mol | ΔG°kon-koff (PRC2/EZH2+/+ [3]; EZH2+/+ (Non-linear Fit)): -12.1 kcal/mol | ΔH°kon-koff (PRC2/EZH2+/+ [3]; EZH2+/+ (Non-linear Fit)): -6.79 kcal/mol | Ligand Efficiency - 0' enzyme:inhibitor pre-incubation EZH1 (PRC2/EZH1): 1.1 | Ligand Efficiency - 15' enzyme:inhibitor pre-incubation EZH1 (PRC2/EZH1): 1.1 | Ligand Efficiency - 60' enzyme:inhibitor pre-incubation EZH1 (PRC2/EZH1): 1.1 | IC50 (PRC2/EZH1; 0' enzyme:inhibitor pre-incubation, read-out: SPA Mean IC50 (M) - 0' enzyme:inhibitor pre-incubation EZH1): 3.1e-07 M | IC50 (PRC2/EZH1; 15' enzyme:inhibitor pre-incubation, read-out: SPA Mean IC50 (M) - 15' enzyme:inhibitor pre-incubation EZH1): 2.9e-07 M | IC50 (PRC2/EZH1; 60' enzyme:inhibitor pre-incubation, read-out: SPA Mean IC50 (M) - 60' enzyme:inhibitor pre-incubation EZH1): 2.9e-07 M
